# Data from patent US20250066310A1, “MULTI-SUBSTITUTED URACIL DERIVATIVE AND PREPARATION METHOD THEREFOR AND APPLICATION THEREOF” (HANGZHOU ADAMERCK PHARMLABS INC., priority 2021, published 2025).
# Tests used:
# [1] = test system: rats with focal cerebral ischemia (MCAO)/reperfusion; assay: Prophylactic administration, cerebral ischemia-reperfusion injury (MCAO/R) in rats; format: in vivo; details: 6 mg/kg tail vein, Mean ± SD, n = 8
# Protocol: Experimental methods: SD rats were randomly divided into 6 groups, set as sham group, model control group, positive control drug ozagrel (6 mg/kg) group, and test drug compound 1-1 high (9 mg/kg), medium (3 mg/kg), and low (1 mg/kg) dose group. The administered groups were preadministered by tail vein injection, and the sham and model control groups were given an equal volume of saline, once a day for 3 consecutive days. Ten minutes after the last administration, the rat MCAO/R model was established, and reperfusion was performed 2 h after ischemia. 24 h after MCAO reperfusion, neurobehavioral scores were performed to determine the neurological function of rats; 2,3,5-triphenyltetrazolium chloride (TTC) staining method was used to determine the rate of cerebral infarction and cerebral water content in rats.
# [2] = test system: rats with autologous thrombus and thrombin-induced cerebral ischemic injury; assay: Ischemic brain injury induced by autologous thrombus and thrombin in rats (i.v., alone or with urokinase); format: in vivo, SD rats; details: n = 10
# Protocol: Experimental Methods: A model of cerebral ischemic injury in SD rats was prepared by embolizing the middle cerebral artery of rats with autologous thrombus and thrombin via the external carotid artery to the internal carotid artery and the rats were randomly divided into 5 groups according to behavioral scores, a sham group (only the external carotid artery was isolated); a model-control group (saline was given to both groups in equal volume); urokinase (5000 U/kg) group; compound 1-1 ([…]) group; with 20 animals in each group (10 for detecting the rate of cerebral infarction, and the other 10 for pathological testing). Each group was administered slowly in the tail vein (1 ml per minute) 2 h after modeling, and the decrease in blood flow was monitored after thrombin injection and 120 min after administration. Neurobehavioral scoring was performed on the rats after 24 h to determine the neurological function of the rats; 2,3,5-triphenyltetrazolium chloride (TTC) staining was used to determine the rate of cerebral infarction and cerebral water content, and hematoxylin-eosin (HE) staining was used to observe the pathological damage of the brain in rats administered with the drug 2 h after cerebral ischemia.
Compound,"Cerebral infarction rate (%) ([1]; 3 days before MCAO/R, 24 h after reperfusion)",behavioral score ([1]; MCAO/R),cerebral water content (%) ([1]; MCAO/R),"Cerebral infarction rate ([2]; 5000 U/kg i.v., TTC staining, mean ± S.D.)","behavioral score ([2]; 5000 U/kg i.v., after 24 h, Mean ± SD)","cerebral water content (%) ([2]; 5000 U/kg i.v., mean ± S.D.)","Percentage decrease two hours after administration (%) ([2]; cerebral blood flow, 5000 U/kg i.v. 2 h after modeling, Mean ± SD)","Percentage decrease after thrombin injection (%) ([2]; cerebral blood flow, before administration, 5000 U/kg group, Mean ± SD)","Pathology Score ([2]; cerebral ischemic areas, 5000 U/kg i.v., mean ± SD)"
"O=C(O)/C=C/c1ccc(Cn2ccnc2)cc1 [Ozagrel, ozagrel, reference compound]",17.07 ± 10.69,1.50 ± 0.76,81.00 ± 0.98,,,,,,
Urokinase,,,,9.72 ± 9.89,1.60 ± 0.70,79.78 ± 0.72,37.12 ± 4.49,50.10 ± 7.94,1.75 ± 0.86
